One series relates to CYP1A. Nature of the series: Induction of CYP1A activity in sandwich-cultured rat hepatocytes (phenacetin probe). The settings on record: 2.5 µM, 72 h. On the procedure:
(§1) Rat primary hepatocytes were prepared according to a modified, two-step collagenase perfusion method. Viability of hepatocyte was determined by Trypan Blue exclusion. Only those hepatocyte preparations with viability greater than 90% were used for further studies. Hepatocyte suspensions were prepared with DMEM-F12 containing 10% FBS, 100 U/mL penicillin, 100 µg/mL streptomycin, 1 µM DEX and 4 µg/mL insulin. Then, hepatocyte suspensions were seeded into the pre-coated wells at a density of 1 × 10^6 cells/well in 24-well plates. […] Medium was changed daily. On day 4, the cultured hepatocytes were washed twice with Hank’s balanced salt solution containing 25 mM HEPES and incubated with 0.5 mL of the same buffer containing 50 μM phenacetin and 5 μM midazolam at 37 °C for 1h. At the end of incubation, 0.5 mL aliquots of the media were transferred to 1.5-mL test tubes and stored at −20 °C until analysis. All incubations were conducted in triplicate.
(§2) Results were analyzed by a two-factor ANOVA. A p < 0.05 was considered statistically significant. […] Microsoft Excel (Microsoft, Redmond, WA, USA) was used to calculate IC50 estimates by linear transformation of the raw data. The data were corrected for both background and control activities.

The test system of the next series is T1, CYP2B6 (2B6).
T1 construct: native enzyme in rat liver microsomes (RLMs)
Nature of the series: Inhibition of isoform-selective probe metabolism (phenacetin 1A2, tolbutamide 2C9, bupropion 2B6, dextromethorphan 2D6, midazolam 3A) in rat liver microsomes (0.4 mg/mL) with an NADPH-generating system, 0.5-500 uM TCAS, 30 min at 37 °C, LC-MS/MS readout. It is filed as biochemical. Particulars: SD, n = 3. As to the method: (§3) The inhibitory effects of TCAS on the activities of CYP1A2, CYP2C9, CYP2D6, CYP2B6 and CYP3A were tested in RLMs and HLMs using probes selective for each isoform. The reaction probes used were as follows: phenacetin for CYP1A2; tolbutamide for CYP2C9; dextromethorphan for CYP2D6; midazolam for CYP3A and bupropion for CYP2B6. Incubation conditions specific to each isoform were linear with time, substrate, and protein concentrations as detailed in our previous studies. Isoform-specific substrate probes were incubated in duplicate at 37 °C with RLMs and HLMs and an NADPH-generating system in the absence (control) or presence of various concentrations (0.5, 1.5, 5, 15, 50, 100, and 500 µM) of TCAS. A 5-min pre-incubation was carried out before the reaction was initiated by adding 0.4 mg/mL of RLMs and HLMs. After incubation for 30 min, the reaction was terminated with 400 μL of ice-cold stop solution.
(§4) Results were analyzed by a two-factor ANOVA. A p < 0.05 was considered statistically significant.
(Liver microsomes are a subcellular fraction often used to study metabolism.)

The test system of another series is T2, CYP3A4 (3A4).
T2 construct: native enzyme in rat liver microsomes (RLMs)
Described as above. It counts as biochemical. Particulars: SD, n = 3. On the procedure:
as §3, §4

In a further series the test system is T3, CYP2D6 (2D6).
T3 construct: native enzyme in rat liver microsomes (RLMs)
The description is as above. It counts as biochemical. Particulars: SD, n = 3. As to the method:
as §3, §4

A further series has as its system T4, CYP2C9 (2C9).
T4 construct: native enzyme in rat liver microsomes (RLMs)
The series is described as above. The settings on record: SD, n = 3. It is filed as biochemical. On the procedure:
as §3, §4

The next series has as its target CYP1A2 (Homo sapiens, UniProt P05177). Nature of the series: TCAS incubation with human liver microsomes plus CYP1A2-selective inhibitor. The settings on record: pH 7.4, probe TCAS (100 µM).
The test system of a further series is CYP3A. Nature of the series: Induction of CYP3A activity in sandwich-cultured rat hepatocytes (midazolam probe). The settings on record: 1 mM, 72 h. As to the method: as §1, §2
Another series deals with CYP2C9 (Homo sapiens, UniProt P11712). Nature of the series: in vitro. Particulars: microsomes, pH 7.4.
Chain of CYP2C9 (P11712 whole entry): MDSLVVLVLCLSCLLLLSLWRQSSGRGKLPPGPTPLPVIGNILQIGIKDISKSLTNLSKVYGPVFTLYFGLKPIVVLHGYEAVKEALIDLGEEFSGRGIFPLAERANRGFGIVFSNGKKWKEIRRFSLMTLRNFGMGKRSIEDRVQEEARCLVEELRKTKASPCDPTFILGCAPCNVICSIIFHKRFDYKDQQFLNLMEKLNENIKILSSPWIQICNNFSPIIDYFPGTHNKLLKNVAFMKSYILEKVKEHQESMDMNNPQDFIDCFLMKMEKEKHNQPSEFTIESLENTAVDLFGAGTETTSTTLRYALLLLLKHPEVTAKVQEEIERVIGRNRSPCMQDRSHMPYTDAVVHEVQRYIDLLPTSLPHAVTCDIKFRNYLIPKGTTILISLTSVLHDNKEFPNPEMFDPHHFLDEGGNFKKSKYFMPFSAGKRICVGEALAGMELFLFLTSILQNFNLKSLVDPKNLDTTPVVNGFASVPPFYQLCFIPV

Chain of CYP1A2 (P05177 whole entry): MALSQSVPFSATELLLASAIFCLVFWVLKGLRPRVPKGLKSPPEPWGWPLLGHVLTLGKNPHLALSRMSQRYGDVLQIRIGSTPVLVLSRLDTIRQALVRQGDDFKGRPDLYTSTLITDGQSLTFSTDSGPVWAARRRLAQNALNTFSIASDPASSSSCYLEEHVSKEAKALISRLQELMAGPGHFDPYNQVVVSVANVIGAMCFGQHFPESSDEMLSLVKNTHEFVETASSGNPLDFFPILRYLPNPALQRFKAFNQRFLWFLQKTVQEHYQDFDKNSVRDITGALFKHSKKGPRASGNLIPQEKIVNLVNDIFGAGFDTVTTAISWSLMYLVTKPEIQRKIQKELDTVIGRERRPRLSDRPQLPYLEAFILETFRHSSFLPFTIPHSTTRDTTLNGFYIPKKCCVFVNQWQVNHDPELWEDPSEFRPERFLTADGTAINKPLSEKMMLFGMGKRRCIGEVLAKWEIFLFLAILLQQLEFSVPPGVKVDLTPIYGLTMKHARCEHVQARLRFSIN
Description for CYP1A2: Inhibitor stock solutions prepared in appropriate solvents accounted for 0.4% organic solvent in the final incubation for 30 min at 37 °C with gentle shaking before stopping with 400 μL ice-cold stop solution (1:1 (v:v) mixture of acetonitrile and methanol) containing 50 ng/mL tolbutamide (IS). After vortexing for 30 seconds, and centrifugation at 16,000 g for 10 min, the supernatant was collected and analyzed by LC-MS/MS as described above. […] All incubations were conducted in triplicate.

Turning to `Cc1ccc2cc3c(ccc4ccccc43)c3c2c1CC3` [3-MC, 3-methylcholanthrene], the “mean induction of CYP1A activity compared with control cells” value with CYP1A is 23.8 fold.

Take `O=S(=O)(O)c1cc2c(O)c(c1)Sc1cc(S(=O)(=O)O)cc(c1O)Sc1cc(S(=O)(=O)O)cc(c1O)Sc1cc(S(=O)(=O)O)cc(c1O)S2` [TCAS, Thiacalix[4]arene tetrasulfonate]: the IC50 – broadly, the point on the concentration scale where inhibition reaches its midpoint – in the series on CYP2B6 (2B6) was 1700 ± 103 µM; in the series on CYP3A4 (3A4), 2420 ± 235 µM; in the series with CYP2D6 (2D6), 196 ± 17.6 µM; in the series with CYP2C9 (2C9), 383 ± 23.5 µM.

In the case of `O=c1cc(-c2ccccc2)oc2c1ccc1ccccc12` [α-Naphthoflavone], at CYP1A2, the inhibition (in general, how much of the control response was suppressed) at 30 min, 6 µM is 54.9%.

On to `CCC1(c2ccccc2)C(=O)NC(=O)NC1=O` [PB, phenobarbital], for which the “mean induction of CYP3A activity compared with control cells” value in the series with CYP3A is given as 5.1 fold.

Take `Nc1ccc(S(=O)(=O)Nc2ccnn2-c2ccccc2)cc1` [sulfaphenazole]: on CYP2C9, the inhibition at 30 min, 60 µM came out at 51.7%.
